Data taken from publication PMC6960190, “Systemic Evaluation on the Pharmacokinetics of Platinum-Based Anticancer Drugs From Animal to Cell Level: Based on Total Platinum and Intact Drugs” (Frontiers in Pharmacology, 2020).
Values joined by “and” are separate entries in the source; they are usually repeats but may differ in a detail not shown here. Identical values can stand only once.

Assays:
[1] = Pharmacokinetics of total platinum in rats (ICP-MS) in blood, plasma and ultrafiltrate plasma; details: intraperitoneal, 16.7 nmol/kg, mean ± sd (n = 6)
Description: The biological samples were pretreatmented by adding 60-fold volume of ICP-MS diluent, which is an aqueous solution containing 2% nitric acid and 0.5% Triton. After vortex for 30 s, the samples were placed quietly for few minutes to obtain a clear supernatant for ICP-MS analysis of total platinum.
Platinum determination was performed with a NexION 2000 Inductively Coupled Plasma-Mass Spectrometer and a Syngistix™ Software-ES version 2.4 (PerkinElmer, USA). Instrumental settings were optimized in order to yield maximum sensitivity for platinum, with the scan mode Peak Hopping, Dwell time per AMU 50 ms and single MCA Channel. […] The assay method was evaluated with four kinds of matrix including blood, plasma, ultrafiltrate plasma, and cell lysate.
(§1) Male Sprague-Dawley rats (n = 18, 200 ± 20g) were provided by Shanghai Jiesijie Experimental Animal Co., Ltd (Shanghai, China) and certificate number was scxk (hu) 2013-0006. Animals were allowed to adapt to the housing environment for 1 week prior to study. […] All animal studies were approved by the Animal Ethics Committee of China Pharmaceutical University.
(§2) Blood-sampling times were arranged as 0, 0.083, 0.5, 1, 2, 4, 8, 12, 24, 48, 72h post-dose for all three platinum-based anticancer drugs. When each time point reached, blood samples (about 800 µl) were collected from the fossa orbitalis. 150 µl of the blood was spiked into another 1.5 ml tube as the blood sample. The rest of the blood was centrifuged immediately at 8,000 rpm for 10 min and the supernatant plasma was harvested. 50 µl of the supernatant plasma was spiked into 1.5 ml for determining total platinum in plasma sample and 50 µl of the supernatant plasma was spiked into 1.5 ml tube for determining intact platinum-based drug in plasma. The remaining plasma was used to prepare ultrafiltrate plasma with Amicon® Ultra 10K Centrifugal Filter Devices, centrifuged at 14,000 g for 20 min. All the samples were stored at -80 °C until analysis.
(§3) The pharmacokinetic parameters were calculated using the software WinNonlion Version 6.4 by non-compartmental method. Statistical significance was tested by Student’s t -test. P < 0.05 was considered statistically significant, while P < 0.01 was considered highly significant.

[2] = Pharmacokinetics of intact platinum-based drugs in rats (UPLC-MS/MS) in blood, plasma and ultrafiltrate plasma; details: intraperitoneal; for complete elimination time of intact drug: equal moles, plasma and ultrafiltrate plasma
Description: The biological samples were pretreatmented by precipitation with acetonitrile. To each 50 µl sample volume, 200 µl of acetonitrile containing IS (25 ng/ml) was added. The samples were then centrifuged for 10 min at 15,000 rpm, after which 5 µl of the supernatant was injected into the UPLC column for analysis of intact drug.
The ACQUITY UPLC I class system consisted of an autosampler, pump, column oven, and controller (waters, MA, USA). Chromatographic separation was performed on an ACQUITY UPLC BEH Amide column (Part NO:186004800, 1.7 µm, 2.1 × 50mm, Waters, MA, USA) and the pre-column is ACQUITY UPLC BEH C18 (1.7µm, Waters, MA, USA). The binary mobile phase consisted of mobile phase B: acetonitrile and mobile phase A: water containing 5 mm ammonium acetate. The injection volume was 5 µl and the column temperature was 40°C. The gradient program was as follows: 0–1 min, 95% phase B; 1–2 min, 95–70% phase B; 2–4 min,70% phase B; 4–5 min, 70–95% phase B; 5–7min, 95% phase B. The total run time is 7.0 min and the flow rate was set at 0.6 ml/min.
The UPLC system was interfaced with a Xevo TQ-XS Mass Spectrometer with MassLynx V4.2 software package (Waters, MA, USA). The mass spectrometer was operated using Turbo Spray source in positive multiple-reaction monitoring-mode (MRM) for intact drug determination. […] The optimal parameters for MS/MS conditions are as follows: capillary 2.4 kV; cone 25 V; desolvation temperature 450 °C.
The assay method was evaluated with four kinds of matrix including blood, plasma, ultrafiltrate plasma, and cell lysate. […] The precision and accuracy for three intact platinum-based drugs in blood/plasma/ultrafiltrate plasma were investigated by replicate analysis of six sets of samples at four concentration levels: 2, 5, 200, and 4,000 ng/ml. The precision and accuracy for the assay method in cell lysate were investigated at four concentration levels of 2, 5, 20, and 160 ng/ml.
as §1, §2, §3

HCT-116 cells [3] = test: Uptake of oxaliplatin (total platinum and intact drug) in HCT-116 cells
Description: (§4) Human colon cancer HCT-116 and LOVO cell line was purchased from cell bank of Shanghai Institute of Biochemistry and Cell Biology (Shanghai, China). HCT-116 cells and LOVO cells were maintained as monolayer cultures respectively in McCoy’s 5a medium and F-12K medium, supplemented with 10% fetal bovine serum, 1% penicillin and streptomycin, in a water-saturated atmosphere (95% air/5% CO2) at 37°C.
(§5) For the temperature dependent study, the cell monolayers were treated with 4 ml drug-containing medium at 200 µm for 30 min incubation respectively at 4 °C and 37 °C.
(§6) Finally, all the monolayers of cells treated with drug-containing medium were washed three times with cold HBSS. Then cells were harvested by 0.25% trypsin digestion and the resulting cell suspension was centrifuged at 1,000 rpm for 5 min. For the uptake and elimination studies, pellets were then diluted in appropriate volume of water and repeatedly freeze-thawed three times to obtain drug-containing cell samples. For the subcellular distribution study, the pellets were further treated according to the manufacturer’s protocol of mitochondrial/nuclear separation kit (KeyGEN BioTECH, Nanjing, China) with differential centrifugation method to prepare the isolated cytosol, nucleus, and mitochondria samples. The cytosol, nucleus, and mitochondria were dissolved in the corresponding buffer salt from the instruction. An aliquot of 20 μl of each cellular or subcellular sample was removed for protein determination using BCA protein assay kit according to the manufacturer’s instructions (micro-well plate protocol).

LOVO cells [4] = test: Uptake of oxaliplatin (total platinum and intact drug) in LOVO cells
Description: as §4, §5, §6

HCT-116 cells [5] = test: Elimination of oxaliplatin in HCT-116 cells; type: in vitro ADME, Human; details: HCT-116, 200 µm oxaliplatin 30 min
Description: (§7) Cells were used for studying cellular pharmacokinetics of oxaliplatin.
(§8) Then the drug-containing medium was discarded and the cell monolayers were washed three times with cold HBSS. After that, fresh blank medium was added to the monolayers with incubation for different times of 5, 15, 30, 45, 60, 120 min.
(§9) To evaluate the elimination behavior of oxaliplatin in colon cancer cells, both oxaliplatin and total platinum of samples are determined by UPLC-MS/MS and ICP-MS method. The results are all normalized to cell protein.

LOVO cells [6] = test: Subcellular distribution of oxaliplatin (total Pt by ICP-MS) in LOVO cells; details: 200 µm oxaliplatin, within 2 h
Description: as §4
(§10) We treated the cell monolayers in the same way as the uptake study above.
as §6, with “An aliquot of 20 μl of each cellular or subcellular sample was removed for protein determination using BCA protein assay kit according to the manufacturer’s instructions (micro-well plate protocol).” left out
(§11) All the prepared subcellular samples for cytosol, nucleus, and mitochondria are determined by ICP-MS method.

LOVO cells [7] = test: Elimination of oxaliplatin in LOVO cells; type: in vitro ADME, Human; details: 200 µm oxaliplatin 30 min
Description: as §7, §8, §9

HCT-116 cells [8] = test: Subcellular distribution of oxaliplatin (total Pt by ICP-MS) in HCT-116 cells; details: HCT-116, 200 µm oxaliplatin, within 2 h
Description: as §4, §10
as §6, with “An aliquot of 20 μl of each cellular or subcellular sample was removed for protein determination using BCA protein assay kit according to the manufacturer’s instructions (micro-well plate protocol).” left out
as §11

[9] = total Pt in ultrafiltrate plasma
[10] = intact drug in blood, 16.7 nmol/kg, mean ± sd (n = 6)
[11] = intact drug in plasma, 16.7 nmol/kg, mean ± sd (n = 6)
[12] = intact drug in ultrafiltrate plasma, 16.7 nmol/kg, mean ± sd (n = 6)
[13] = HCT-116, 200 µm oxaliplatin, 15-120 min, normalized to cellular protein
[14] = 200 µm oxaliplatin, 15-120 min, normalized to cellular protein
[15] = ng Pt/mg protein of subcellular organelles

Row | SMILES | Vz ([1]; total Pt in blood) | Cl ([1]; total Pt in plasma) | Vz ([1]; total Pt in plasma) | Cl [1, 9] | Vz [1, 9] | Cl [2, 10] | Cmax [2, 10] | T1/2 [2, 10] | Vz [2, 10] | Cl [2, 11] | Cmax [2, 11] | T1/2 [2, 11] | Vz [2, 11] | Cl [2, 12] | Cmax [2, 12] | T1/2 [2, 12] | Vz [2, 12] | complete elimination time of intact drug ([2]; intact drug in blood) | further results
1 | N.N.O=C([O-])C1(C(=O)[O-])CCC1.[Pt+2] [carboplatin, Carboplatin] | 0.009 L/kg | 0.33 mL/h/kg | 0.014 L/kg | 0.67 mL/h/kg | 0.016 L/kg | 1.1 mL/h/kg and 1.1 ± 0.1 mL/h/kg | 9.9 ± 0.45 µM | 122 ± 7.8 min | 0.0033 L/kg and 0.0033 ± 0.0004 L/kg | 0.1 mL/h/kg | 11.2 ± 0.49 µM | 117 ± 7.2 min | 0.0028 L/kg and 0.0028 ± 0.0003 L/kg | 1.2 mL/h/kg and 1.2 ± 0.2 mL/h/kg | 10.1 ± 0.75 µM | 91.2 ± 29.4 min | 0.0027 ± 0.0009 L/kg | 12 h | Tmax [2, 12]: 25.2 ± 11.4 min
2 | O=C1[O][Pt]2([NH][C@@H]3CCCC[C@H]3[NH]2)[O]C1=O [oxaliplatin, Oxaliplatin] | 0.001 L/kg | 0.1 mL/h/kg | 0.004 L/kg | 1.4 mL/h/kg | 0.038 L/kg | 49 mL/h/kg and 49 ± 6.6 mL/h/kg | 0.42 ± 0.06 µM | 33 ± 2.4 min | 0.0408 L/kg and 0.0408 ± 0.0058 L/kg | 6.9 mL/h/kg and 6.9 ± 0.6 mL/h/kg | 3.9 ± 0.34 µM | 10.8 ± 0 min | 0.0018 L/kg and 0.0018 ± 0.0001 L/kg | 7.2 mL/h/kg and 7.2 ± 1.7 mL/h/kg | 3.93 ± 0.45 µM | 10.8 ± 0.6 min | 0.0019 ± 0.0006 L/kg | 2 h | cellular concentration of total platinum and intact oxaliplatin versus medium concentration (HCT-116 cells [3]; HCT-116, 20-500 µM oxaliplatin, 30 min): increased with increasing medium concentration of oxaliplatin; cellular accumulation of intact oxaliplatin over incubation time (HCT-116 cells [3]; [13]): increased over incubation time at the beginning of drug treatment (0–45 min), then gradually decreased (45–120 min); cellular total platinum over incubation time (HCT-116 cells [3]; [13]): increased within increasing incubation time; cellular accumulation of platinum or oxaliplatin versus temperature (HCT-116 cells [3]; HCT-116, 200 µm oxaliplatin, 30 min, 4 °C vs 37 °C, P < 0.001): significant higher at 37 °C than that at 4 °C; cellular concentration of total platinum and intact oxaliplatin versus medium concentration (LOVO cells [4]; 20-500 µM oxaliplatin, 30 min): increased with increasing medium concentration of oxaliplatin; cellular accumulation of intact oxaliplatin over incubation time (LOVO cells [4]; [14]): increased over incubation time at the beginning of drug treatment (0–45 min), then gradually decreased (45–120 min); cellular total platinum over incubation time (LOVO cells [4]; [14]): increased within increasing incubation time; cellular accumulation of platinum or oxaliplatin versus temperature (LOVO cells [4]; 200 µm oxaliplatin, 30 min, 4 °C vs 37 °C, P < 0.001): significant higher at 37 °C than that at 4 °C; time to complete elimination of cellular intact oxaliplatin (HCT-116 cells [5]; then blank medium): 1 h; cellular platinum after change to blank medium (HCT-116 cells [5]; then blank medium up to 2 h): just has a little decrease in 2 h; subcellular accumulation of Pt in organelles over incubation time (LOVO cells [6]): increased with the increasing incubation time; order of Pt concentration in cytosol, mitochondria and nucleus (LOVO cells [6]; [15]): the concentration of Pt in cytosol is more than that in mitochondria, followed by the concentration of Pt in nucleus; time to complete elimination of cellular intact oxaliplatin (LOVO cells [7]; then blank medium): 1 h; cellular platinum after change to blank medium (LOVO cells [7]; then blank medium up to 2 h): just has a little decrease in 2 h; subcellular accumulation of Pt in organelles over incubation time (HCT-116 cells [8]): increased with the increasing incubation time; order of Pt concentration in cytosol, mitochondria and nucleus (HCT-116 cells [8]; [15]): the concentration of Pt in cytosol is more than that in mitochondria, followed by the concentration of Pt in nucleus
